How the values were obtained:
DU-145 [1] = experiment: Cytotoxicity against human androgen-independent DU145 cells by MTT assay; type: functional, cell-based
LNCaP [2] = experiment: Cytotoxicity against human androgen-dependent LNCAP cells at 1 uM by MTT assay; type: functional
MCF-10A = experiment: Cytotoxicity against human MCF10A cells at 1 uM by MTT assay; type: cell-based
DU-145 [3] = experiment: Cytotoxicity against human androgen-independent DU145 cells at 1 uM by MTT assay; type: functional
LNCaP [4] = experiment: Cytotoxicity against human androgen-dependent LNCAP cells by MTT assay; type: functional, cell-based
PC-3 [5] = experiment: Cytotoxicity against human androgen-independent PC3 cells at 1 uM by MTT assay; type: functional
PC-3 [6] = experiment: Cytotoxicity against human androgen-independent PC3 cells by MTT assay; type: functional, cell-based
DU-145 [7] = experiment: Ratio of doxorubicin IC50 to compound IC50 for human androgen-independent DU145 cells

## CC(O)(CS(=O)(=O)c1ccc(Br)cc1)c1nc(-c2ccccc2)no1 (centres undefined)
DU-145 [1]
  IC50: > 100 µM

## CC(O)(CS(=O)(=O)c1ccc(F)cc1)c1nc(-c2ccccc2)no1 (centres undefined)
DU-145 [1]
  IC50: > 100 µM

## CC(O)(CSc1ccc(F)cc1)c1nc(-c2ccccc2)no1 (centres undefined)
DU-145 [1]
  IC50: > 100 µM

## CC(O)(CSc1ccc(Br)cc1)c1nc(-c2ccccc2)no1 (centres undefined)
DU-145 [1]
  IC50: > 100 µM

## CC(O)(CSc1ccc(F)cc1)c1nc(-c2ccc(Cl)cc2)no1 (centres undefined)
DU-145 [1]
  IC50: 36.2 µM

## CC(O)(CSc1ccc(Cl)cc1)c1nc(-c2ccc(Cl)cc2)no1 (centres undefined)
DU-145 [1]
  IC50: 14.5 µM

## CC(O)(CSc1ccc(Cl)cc1)c1nc(-c2ccc([N+](=O)[O-])c(C(F)(F)F)c2)no1 (centres undefined)
LNCaP [2]
  Activity: 28.93%
MCF-10A
  Activity: 10.35%
DU-145 [3]
  Activity: 48.93%
LNCaP [4]
  IC50: > 100 µM
PC-3 [5]
  Activity: 39.61%
PC-3 [6]
  IC50: 3 µM
DU-145 [1]
  IC50: 1.3 µM

## CC(O)(CS(=O)(=O)c1ccc(Br)cc1)c1nc(-c2ccc([N+](=O)[O-])c(C(F)(F)F)c2)no1 (centres undefined)
DU-145 [1]
  IC50: > 100 µM

## CC(O)(CSc1ccccc1)c1nc(-c2ccc(F)c(Cl)c2)no1 (centres undefined)
DU-145 [1]
  IC50: 5.5 µM

## CC(O)(CSc1ccc(Br)cc1)c1nc(-c2ccc(F)c(Cl)c2)no1 (centres undefined)
DU-145 [1]
  IC50: 8.8 µM

## CC(O)(CSc1ccc(Cl)cc1)c1nc(-c2ccc(F)c(Cl)c2)no1 (centres undefined)
LNCaP [2]
  Activity: 33.85%
MCF-10A
  Activity: 10.62%
DU-145 [7]
  Ratio IC50: 11.6
DU-145 [3]
  Activity: 68.41%
LNCaP [4]
  IC50: 26.4 µM
PC-3 [5]
  Activity: 44.39%
PC-3 [6]
  IC50: 10 µM
DU-145 [1]
  IC50: 0.5 µM

## CC(O)(CS(=O)(=O)c1ccc(Br)cc1)c1nc(-c2ccc(Cl)cc2)no1 (centres undefined)
DU-145 [1]
  IC50: > 100 µM

## CC(O)(CS(=O)(=O)c1ccc(Cl)cc1)c1nc(-c2ccc(F)c(Cl)c2)no1 (centres undefined)
DU-145 [1]
  IC50: 35.5 µM

## CC(O)(CSc1ccccc1)c1nc(-c2ccccc2)no1 (centres undefined)
DU-145 [1]
  IC50: > 100 µM

## CC(O)(CSc1ccc(Br)cc1)c1nc(-c2ccc([N+](=O)[O-])c(C(F)(F)F)c2)no1 (centres undefined)
LNCaP [2]
  Activity: 27.45%
MCF-10A
  Activity: 10.55%
DU-145 [3]
  Activity: 48.71%
LNCaP [4]
  IC50: 40 µM
PC-3 [5]
  Activity: 31.77%
PC-3 [6]
  IC50: 51 µM
DU-145 [1]
  IC50: 1.6 µM

## CC(O)(CSc1ccccc1)c1nc(-c2ccc(Cl)cc2)no1 (centres undefined)
DU-145 [1]
  IC50: 4.5 µM

## COc1cccc2c1C(=O)c1c(O)c3c(c(O)c1C2=O)C[C@@](O)(C(=O)CO)C[C@@H]3O[C@H]1C[C@H](N)[C@H](O)[C@H](C)O1 [DOXORUBICIN]
PC-3 [6]
  IC50: 1.05 µM
DU-145 [1]
  IC50: 5.8 µM

## CC(O)(CS(=O)(=O)c1ccc(F)cc1)c1nc(-c2ccc([N+](=O)[O-])c(C(F)(F)F)c2)no1 (centres undefined)
DU-145 [1]
  IC50: > 100 µM

## CC(O)(CS(=O)(=O)c1ccc(Cl)cc1)c1nc(-c2ccccc2)no1 (centres undefined)
DU-145 [1]
  IC50: > 100 µM

## CC(O)(CSc1ccccc1)c1nc(-c2ccc([N+](=O)[O-])c(C(F)(F)F)c2)no1 (centres undefined)
LNCaP [2]
  Activity: 31.1%
MCF-10A
  Activity: 12.62%
DU-145 [3]
  Activity: 49.62%
LNCaP [4]
  IC50: 9.67 µM
PC-3 [5]
  Activity: 49.02%
PC-3 [6]
  IC50: 3.5 µM
DU-145 [1]
  IC50: 3 µM

## CC(O)(CSc1ccc(Br)cc1)c1nc(-c2ccc(Cl)cc2)no1 (centres undefined)
DU-145 [1]
  IC50: 6.5 µM

## CC(O)(CS(=O)(=O)c1ccc(Cl)cc1)c1nc(-c2ccc([N+](=O)[O-])c(C(F)(F)F)c2)no1 (centres undefined)
DU-145 [1]
  IC50: 91 µM

## CC(O)(CSc1ccc(Cl)cc1)c1nc(-c2ccccc2)no1 (centres undefined)
DU-145 [1]
  IC50: 70.7 µM

## CC(O)(CS(=O)(=O)c1ccc(F)cc1)c1nc(-c2ccc(F)c(Cl)c2)no1 (centres undefined)
DU-145 [1]
  IC50: > 100 µM

## CC(O)(CS(=O)(=O)c1ccc(F)cc1)c1nc(-c2ccc(Cl)cc2)no1 (centres undefined)
DU-145 [1]
  IC50: > 100 µM

## CC(O)(CS(=O)(=O)c1ccc(Cl)cc1)c1nc(-c2ccc(Cl)cc2)no1 (centres undefined)
DU-145 [1]
  IC50: > 100 µM

## CC(O)(CS(=O)(=O)c1ccccc1)c1nc(-c2ccc(F)c(Cl)c2)no1 (centres undefined)
DU-145 [1]
  IC50: > 100 µM

## CC(O)(CS(=O)(=O)c1ccccc1)c1nc(-c2ccc(Cl)cc2)no1 (centres undefined)
DU-145 [1]
  IC50: > 100 µM

## CC(O)(CS(=O)(=O)c1ccccc1)c1nc(-c2ccc([N+](=O)[O-])c(C(F)(F)F)c2)no1 (centres undefined)
DU-145 [1]
  IC50: > 100 µM

## CC(O)(CSc1ccc(F)cc1)c1nc(-c2ccc([N+](=O)[O-])c(C(F)(F)F)c2)no1 (centres undefined)
LNCaP [2]
  Activity: 26.88%
MCF-10A
  Activity: 11.35%
DU-145 [3]
  Activity: 47.28%
LNCaP [4]
  IC50: 8.15 µM
PC-3 [5]
  Activity: 46.89%
PC-3 [6]
  IC50: 5.5 µM
DU-145 [1]
  IC50: 5.1 µM

## CC(O)(CS(=O)(=O)c1ccc(Br)cc1)c1nc(-c2ccc(F)c(Cl)c2)no1 (centres undefined)
DU-145 [1]
  IC50: 75 µM

## CC(O)(CS(=O)(=O)c1ccccc1)c1nc(-c2ccccc2)no1 (centres undefined)
DU-145 [1]
  IC50: > 100 µM

## CC(O)(CSc1ccc(F)cc1)c1nc(-c2ccc(F)c(Cl)c2)no1 (centres undefined)
LNCaP [2]
  Activity: 32.86%
MCF-10A
  Activity: 12.44%
DU-145 [3]
  Activity: 47.84%
LNCaP [4]
  IC50: > 100 µM
PC-3 [5]
  Activity: 40.77%
PC-3 [6]
  IC50: 11.5 µM
DU-145 [1]
  IC50: 2.9 µM

## CC(O)(CS(=O)(=O)c1ccc(F)cc1)C(=O)Nc1ccc(C#N)c(C(F)(F)F)c1 (centres undefined) [BICALUTAMIDE]
LNCaP [4]
  IC50: 1.71 µM
PC-3 [6]
  IC50: 77 µM
DU-145 [1]
  IC50: 64 µM
